Experimental findings from ChEMBL document CHEMBL4330108, “The association between anti-tumor potency and structure-activity of protein-kinases inhibitors based on quinazoline molecular skeleton” (Bioorg Med Chem, 2019) are described below.

Assay [1] can be described thus: Inhibition of PI3K (unknown origin). Set-up: species or system Homo sapiens.
Assay [2] has as its target Histone deacetylase 1 (Homo sapiens, UniProt Q13547). The assay is described as follows: Inhibition of HDAC1 (unknown origin) using HDAC substrate by AFC probe based immunoprecipitation assay.
In assay [3] the target is T1, Vascular endothelial growth factor receptor 2 (Homo sapiens, UniProt P35968). The assay is described as follows: Inhibition of VEGFR2 (unknown origin) using FAM-labelled peptide as substrate measured after 10 mins.
Assay [4] deals with Vascular endothelial growth factor receptor 1 (Homo sapiens, UniProt P17948). The assay is described as follows: Inhibition of VEGFR1 (unknown origin).
Assay [5] concerns the target T1, Vascular endothelial growth factor receptor 2.
Assay [6] deals with Vascular endothelial growth factor receptor 3 (Homo sapiens, UniProt P35916). The assay is described as follows: Inhibition of VEGFR3 (unknown origin).
The nature of assay [7]: Inhibition of bovine brain PI3K using phosphatidylinositol as substrate preincubated for 5 mins followed by [gamma-32P]ATP addition and measured after 10 mins by liquid scintillation counting method. Set-up: species or system Bos taurus.
Assay [8] has as its target Epidermal growth factor receptor (Homo sapiens, UniProt P00533). The assay is described as follows: Inhibition of EGFR (unknown origin).
Assay [9] deals with Receptor tyrosine-protein kinase erbB-2 (Homo sapiens, UniProt P04626). The assay is described as follows: Inhibition of HER2 (unknown origin).
Assay [10] addresses Serine/threonine-protein kinase B-raf (Homo sapiens) (UniProt P15056). The assay is described as follows: Inhibition of wild-type B-Raf (unknown origin) at 10 uM relative to control.
The nature of assay [11]: Inhibition of PI3K (unknown origin) using PIP2 as substrate measured after 2 hrs by luciferase-luciferin […] assay. Set-up: species or system Homo sapiens.
Assay [12] addresses Serine/threonine-protein kinase B-raf (Homo sapiens, UniProt P15056, V600E). The assay is described as follows: Inhibition of recombinant human GST-fused B-Raf V600E mutant using MEK1 as substrate measured after 60 mins by HTRF assay. On the technique in general: In TR-FRET formats the signal depends on donor and acceptor labels being close together.

Sequence of Vascular endothelial growth factor receptor 1 (P17948 whole entry): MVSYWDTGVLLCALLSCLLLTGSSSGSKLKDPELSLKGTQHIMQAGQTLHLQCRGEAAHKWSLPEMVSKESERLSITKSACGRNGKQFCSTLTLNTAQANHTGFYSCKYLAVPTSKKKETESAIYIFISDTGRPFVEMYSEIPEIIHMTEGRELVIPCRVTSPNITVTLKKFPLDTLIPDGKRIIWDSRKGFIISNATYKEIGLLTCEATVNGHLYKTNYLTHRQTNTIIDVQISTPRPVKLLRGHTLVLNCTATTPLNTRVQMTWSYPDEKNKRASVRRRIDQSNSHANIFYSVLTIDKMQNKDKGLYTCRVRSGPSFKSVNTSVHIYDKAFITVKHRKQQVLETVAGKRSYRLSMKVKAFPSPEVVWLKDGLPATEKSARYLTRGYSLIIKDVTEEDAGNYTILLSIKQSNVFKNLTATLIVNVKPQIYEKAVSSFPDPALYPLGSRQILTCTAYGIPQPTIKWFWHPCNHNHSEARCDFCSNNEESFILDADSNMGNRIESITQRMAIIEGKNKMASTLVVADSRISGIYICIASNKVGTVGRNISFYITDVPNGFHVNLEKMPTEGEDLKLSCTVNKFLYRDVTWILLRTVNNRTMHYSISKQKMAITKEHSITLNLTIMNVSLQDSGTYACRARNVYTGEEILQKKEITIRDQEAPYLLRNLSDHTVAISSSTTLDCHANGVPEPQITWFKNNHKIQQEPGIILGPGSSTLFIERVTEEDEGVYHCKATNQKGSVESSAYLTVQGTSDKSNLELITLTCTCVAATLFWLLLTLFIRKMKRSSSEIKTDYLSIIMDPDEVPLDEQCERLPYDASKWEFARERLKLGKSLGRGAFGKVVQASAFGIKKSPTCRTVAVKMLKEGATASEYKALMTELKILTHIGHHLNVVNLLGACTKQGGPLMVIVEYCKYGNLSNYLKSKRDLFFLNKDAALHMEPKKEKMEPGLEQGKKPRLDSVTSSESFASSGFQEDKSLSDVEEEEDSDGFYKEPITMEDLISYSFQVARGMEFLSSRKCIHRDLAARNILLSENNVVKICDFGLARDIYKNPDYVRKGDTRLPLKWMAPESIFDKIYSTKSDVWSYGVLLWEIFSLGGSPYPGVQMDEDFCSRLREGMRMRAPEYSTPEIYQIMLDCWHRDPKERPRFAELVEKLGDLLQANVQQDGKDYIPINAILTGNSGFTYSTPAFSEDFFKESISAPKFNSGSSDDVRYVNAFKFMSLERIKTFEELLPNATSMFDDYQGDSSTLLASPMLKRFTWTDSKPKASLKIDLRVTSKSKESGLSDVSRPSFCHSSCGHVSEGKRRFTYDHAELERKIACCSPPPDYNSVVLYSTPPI
T1 sequence (P35968 whole entry): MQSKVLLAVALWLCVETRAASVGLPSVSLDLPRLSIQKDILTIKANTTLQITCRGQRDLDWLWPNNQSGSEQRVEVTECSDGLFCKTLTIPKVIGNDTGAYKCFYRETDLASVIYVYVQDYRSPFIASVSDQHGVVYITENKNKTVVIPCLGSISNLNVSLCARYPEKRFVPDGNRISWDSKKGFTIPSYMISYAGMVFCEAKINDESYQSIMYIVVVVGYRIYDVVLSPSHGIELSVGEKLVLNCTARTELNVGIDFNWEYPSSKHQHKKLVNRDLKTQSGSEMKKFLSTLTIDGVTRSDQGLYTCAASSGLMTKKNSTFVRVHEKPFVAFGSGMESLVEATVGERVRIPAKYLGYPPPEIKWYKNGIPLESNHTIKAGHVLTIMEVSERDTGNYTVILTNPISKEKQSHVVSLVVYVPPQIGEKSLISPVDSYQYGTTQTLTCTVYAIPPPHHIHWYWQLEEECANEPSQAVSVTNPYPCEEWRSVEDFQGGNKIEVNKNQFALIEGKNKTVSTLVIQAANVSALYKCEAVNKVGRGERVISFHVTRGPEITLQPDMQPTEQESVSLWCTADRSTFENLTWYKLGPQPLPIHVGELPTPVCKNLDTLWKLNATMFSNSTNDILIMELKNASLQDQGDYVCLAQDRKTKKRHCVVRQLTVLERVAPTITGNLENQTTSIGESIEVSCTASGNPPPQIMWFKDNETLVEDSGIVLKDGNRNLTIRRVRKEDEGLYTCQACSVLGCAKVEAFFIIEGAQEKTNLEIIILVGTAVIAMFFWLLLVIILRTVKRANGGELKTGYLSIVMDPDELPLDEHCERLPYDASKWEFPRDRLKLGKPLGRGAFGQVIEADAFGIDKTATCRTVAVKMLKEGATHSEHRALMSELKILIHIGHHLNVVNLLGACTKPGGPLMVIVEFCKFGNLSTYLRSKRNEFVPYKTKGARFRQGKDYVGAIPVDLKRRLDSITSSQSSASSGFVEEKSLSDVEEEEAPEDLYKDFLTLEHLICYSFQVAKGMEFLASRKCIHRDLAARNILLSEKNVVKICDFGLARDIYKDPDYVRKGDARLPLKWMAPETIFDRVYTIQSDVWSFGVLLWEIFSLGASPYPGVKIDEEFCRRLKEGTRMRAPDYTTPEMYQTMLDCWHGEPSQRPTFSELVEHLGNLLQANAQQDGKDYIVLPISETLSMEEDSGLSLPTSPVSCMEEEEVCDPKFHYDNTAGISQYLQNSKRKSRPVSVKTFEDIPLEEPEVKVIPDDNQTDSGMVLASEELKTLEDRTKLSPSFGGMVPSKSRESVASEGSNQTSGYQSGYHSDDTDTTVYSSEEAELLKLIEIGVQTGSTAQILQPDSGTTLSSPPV
Sequence of Vascular endothelial growth factor receptor 3 (P35916 whole entry): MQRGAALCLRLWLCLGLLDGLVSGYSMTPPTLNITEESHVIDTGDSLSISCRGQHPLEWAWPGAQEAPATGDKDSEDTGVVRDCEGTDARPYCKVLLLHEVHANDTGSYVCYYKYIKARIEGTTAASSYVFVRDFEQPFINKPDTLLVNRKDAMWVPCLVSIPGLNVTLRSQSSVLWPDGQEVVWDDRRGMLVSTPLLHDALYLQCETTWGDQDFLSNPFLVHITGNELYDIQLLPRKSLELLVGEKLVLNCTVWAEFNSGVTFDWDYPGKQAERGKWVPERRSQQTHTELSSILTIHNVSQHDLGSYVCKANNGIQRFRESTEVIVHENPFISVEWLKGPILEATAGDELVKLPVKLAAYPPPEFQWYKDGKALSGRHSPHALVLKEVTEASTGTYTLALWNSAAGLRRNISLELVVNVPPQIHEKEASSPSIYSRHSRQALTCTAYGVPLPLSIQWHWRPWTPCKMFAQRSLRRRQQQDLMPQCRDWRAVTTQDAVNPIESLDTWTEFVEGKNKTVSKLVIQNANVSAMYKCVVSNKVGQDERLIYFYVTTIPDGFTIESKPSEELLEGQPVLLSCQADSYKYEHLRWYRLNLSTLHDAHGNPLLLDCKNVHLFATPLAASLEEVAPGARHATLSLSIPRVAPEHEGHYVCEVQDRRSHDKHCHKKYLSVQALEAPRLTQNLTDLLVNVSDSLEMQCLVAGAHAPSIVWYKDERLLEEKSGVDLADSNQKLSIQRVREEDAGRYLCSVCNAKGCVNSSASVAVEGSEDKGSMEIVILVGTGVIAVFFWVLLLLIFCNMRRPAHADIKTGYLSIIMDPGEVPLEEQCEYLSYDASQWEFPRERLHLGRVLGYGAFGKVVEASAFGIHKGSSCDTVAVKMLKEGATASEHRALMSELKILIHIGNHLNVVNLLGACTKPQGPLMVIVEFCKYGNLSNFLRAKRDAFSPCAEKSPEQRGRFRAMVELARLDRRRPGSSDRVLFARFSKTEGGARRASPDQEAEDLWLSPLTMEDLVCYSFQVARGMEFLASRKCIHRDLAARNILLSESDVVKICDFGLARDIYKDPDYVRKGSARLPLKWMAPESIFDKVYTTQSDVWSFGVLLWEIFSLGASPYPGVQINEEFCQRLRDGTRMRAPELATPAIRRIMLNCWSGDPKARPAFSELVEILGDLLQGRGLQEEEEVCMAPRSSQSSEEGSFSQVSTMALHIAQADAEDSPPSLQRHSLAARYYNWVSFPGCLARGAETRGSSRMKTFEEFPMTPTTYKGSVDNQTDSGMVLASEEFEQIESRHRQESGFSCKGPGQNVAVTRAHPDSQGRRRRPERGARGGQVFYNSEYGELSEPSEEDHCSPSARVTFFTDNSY
Sequence of Serine/threonine-protein kinase B-raf (Homo sapiens) (P15056 whole entry): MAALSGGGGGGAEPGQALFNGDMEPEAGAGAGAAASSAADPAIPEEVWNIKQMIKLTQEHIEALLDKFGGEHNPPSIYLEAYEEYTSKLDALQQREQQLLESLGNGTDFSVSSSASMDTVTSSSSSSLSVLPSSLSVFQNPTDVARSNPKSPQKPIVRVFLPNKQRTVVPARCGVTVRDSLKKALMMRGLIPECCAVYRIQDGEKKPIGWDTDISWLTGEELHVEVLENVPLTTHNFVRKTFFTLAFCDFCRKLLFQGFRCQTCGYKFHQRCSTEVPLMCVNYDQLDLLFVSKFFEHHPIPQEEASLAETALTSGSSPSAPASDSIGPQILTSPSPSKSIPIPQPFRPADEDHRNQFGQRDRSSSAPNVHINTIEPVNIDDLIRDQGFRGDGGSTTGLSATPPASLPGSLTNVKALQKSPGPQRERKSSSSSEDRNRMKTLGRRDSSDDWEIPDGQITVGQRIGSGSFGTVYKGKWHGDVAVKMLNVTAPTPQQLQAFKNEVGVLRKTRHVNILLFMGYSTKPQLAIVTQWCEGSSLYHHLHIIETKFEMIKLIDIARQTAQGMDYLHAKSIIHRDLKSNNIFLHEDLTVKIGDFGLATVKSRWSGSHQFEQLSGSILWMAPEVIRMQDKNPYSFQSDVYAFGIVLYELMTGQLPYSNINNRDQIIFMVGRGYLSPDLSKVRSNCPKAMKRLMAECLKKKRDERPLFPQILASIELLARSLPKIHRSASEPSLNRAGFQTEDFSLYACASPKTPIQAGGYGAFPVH

As a reminder, the IC50 is the concentration that inhibits the measured activity by half. Turning to `c1ccc2c(c1)ccn2-c1ncnc2ccc(-c3ccc4[nH]ccc4c3)cc12`, in assay [1], the IC50 lay within 100 to 10000 nM.
Regarding `COc1cc2ncnc(Nc3ccc(CC(=O)Nc4cc(-c5cccs5)ccc4N)cc3)c2cc1OC`, the midpoint of inhibition in assay [2], the IC50, lay at 178 nM.
Consider `O=C(Nc1ccc(Nc2ccc([N+](=O)[O-])c3ncnc(O)c23)cc1)Nc1cc(Cl)ccc1Cl`, for which it took 42 nM to reach half-maximal inhibition in [3] (IC50).
For the compound `COc1cc2ncnc(Nc3ccc4c(c3)CCCN4C(=O)Nc3cccc(Cl)c3)c2cc1OC`, the IC50 in [4] is 7.1 nM; in assay [5], 30.5 nM; in assay [6] it was 7.8 nM.
`O=c1cc(N2CCOCC2)oc2c(-c3ccccc3)cccc12` [LY-294002] showed an IC50 in [7] of 1000 nM.
On to `Cc1cccc(NC(=O)Nc2ccc(Nc3ccc([N+](=O)[O-])c4ncnc(O)c34)cc2)c1`, for which the IC50 in assay [3] was found to be 78 nM.
For the compound `CCOc1cc2ncc(C#N)c(Nc3ccc(OCc4ccccn4)c(F)c3)c2cc1NC(=O)/C=C/CN(C)C`, the IC50 is 92 nM in assay [8] and 59 nM in assay [9].
In the case of `COc1cccc(NC(=O)N2CCCc3cc(Nc4ncnc5cc(OC)c(OC)cc45)ccc32)c1`, the IC50 is 5.5 nM in assay [4], 51.9 nM in assay [5] and 14.2 nM in assay [6].
On to `COc1cc2ncnc(Nc3ccc4c(c3)CCCN4C(=O)Nc3ccc(C(C)=O)cc3)c2cc1OC`, for which the figures for the IC50 in assay [4], in assay [5] and in assay [6] were 9.6 nM, 30.1 nM and 17.3 nM, respectively.
Turning to `O=C(Nc1ccc(Nc2ccc([N+](=O)[O-])c3ncnc(O)c23)cc1)Nc1cc(C(F)(F)F)ccc1Cl`, the IC50 in [3] is 12 nM.
In general, inhibition refers to the share of the control response that was lost under treatment. In the case of `CCOCCCOc1cc2ncnc(Oc3ccc(NC(=O)Nc4ccc(F)c(C(F)(F)F)c4)cc3)c2cc1N`, the inhibition in assay [10] is 98.9%.
In [4], `CCOc1cc2ncc(C#N)c(Nc3ccc(Cl)c(F)c3)c2cc1NC(=O)/C=C/CN(C)C` yielded a half-maximal inhibitory concentration (IC50) of 1260 nM.
Compound `Cc1cc(N2CCC(F)(F)C2)cc2c(N3CCc4ccc(C(=O)N5CCC(N)CC5)cc4C3)ncnc12` gave an IC50 in assay [11] of less than 500 nM.
Consider `Cc1ccc(CC[C@@H]2CCN2C)c(NC(=O)Nc2cccc(Oc3ccc4nc[nH]c(=O)c4c3)c2)c1`, for which the IC50 in assay [12] turned out to be 3.9 nM.
Compound `O=C(Nc1ccc(Nc2ccc([N+](=O)[O-])c3ncnc(O)c23)cc1)Nc1cccc(C(F)(F)F)c1` registered an IC50 in assay [3] of 45 nM.
